Test results reported in patent US20180155344A1, “TRICYCLIC PIPERIDINE COMPOUNDS” (ACTELION PHARMACEUTICALS LTD, priority 2015, published 2018).

Biological target: T1, human TPH1 (Homo sapiens, UniProt P17752)
T1 sequence (P17752 1-444): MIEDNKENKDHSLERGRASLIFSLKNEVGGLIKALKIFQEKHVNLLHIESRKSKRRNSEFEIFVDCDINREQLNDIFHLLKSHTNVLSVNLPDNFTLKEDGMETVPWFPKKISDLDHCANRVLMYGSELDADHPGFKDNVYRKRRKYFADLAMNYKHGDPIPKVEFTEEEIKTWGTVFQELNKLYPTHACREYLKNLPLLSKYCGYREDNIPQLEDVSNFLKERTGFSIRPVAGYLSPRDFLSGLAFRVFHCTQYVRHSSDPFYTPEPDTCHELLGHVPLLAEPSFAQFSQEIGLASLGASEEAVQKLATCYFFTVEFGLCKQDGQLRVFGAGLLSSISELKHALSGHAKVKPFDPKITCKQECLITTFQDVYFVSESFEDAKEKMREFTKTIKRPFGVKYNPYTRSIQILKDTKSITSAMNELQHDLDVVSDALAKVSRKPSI
Experiment: biochemical
Outline: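 Inhibition is derived from 5-hydroxy-L-tryptophan fluorescence (540 nm emission, 300 nm excitation) after perchloric acid stop, relative to DMSO vehicle. Recombinant full-length human enzyme (40-80 nM) reacts with 40 μM tryptophan plus 100 μM methyltetrahydropterin, pH 7.6 Tris/DTT/catalase, 15° C, 60 min.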

| IC50 [nM] | Structure (SMILES) |
| --- | --- |
| 124 | O=C(COc1ccc(N2CCOCC2)cc1Cl)N1CCc2nc3cc(Cl)ccn3c2[C@H]1c1cccnc1F [Example 2.2.2, 1-((1R)-7-chloro-1-(2-fluoropyridin-3-yl)-3,10a-dihydroimidazo[1,2-a:5,4-c′]dipyridin-2(1H)-yl)-2-(2-chloro-4-morpholinophenoxy)ethan-1-one] |
| 67 | COc1ccc(C2c3c(nc4cc(C(F)(F)F)ccn34)CCN2C(=O)COc2cccnc2Cl)cc1OC (centres unmarked) [Example 3.1.15, 2-((2-chloropyridin-3-yl)oxy)-1-(1-(3,4-dimethoxyphenyl)-7-(trifluoromethyl)-3,4-dihydroimidazo[1,2-a:5,4-c′]dipyridin-2(1H)-yl)ethan-1-one] |
| 71 | COc1ccc(C2c3c(nc4cc(C(F)(F)F)ccn34)CCN2C(=O)COc2ccc(C)cc2)cc1OC (centres unmarked) [Example 3.1.6, 1-(1-(3,4-dimethoxyphenyl)-7-(trifluoromethyl)-3,4-dihydroimidazo[1,2-a:5,4-c′]dipyridin-2(1H)-yl)-2-(p-tolyloxy)ethan-1-one] |
| 59 | O=C(COc1ccc2ccccc2c1)N1CCc2nc3cc(C(F)(F)F)ccn3c2C1c1ccc(Cl)cc1 (centres unmarked) [Example 3.30.1, 1-(1-(4-chlorophenyl)-7-(trifluoromethyl)-3,4-dihydroimidazo[1,2-a:5,4-c′]dipyridin-2(1H)-yl)-2-(naphthalen-2-yloxy)ethan-1-one] |
| 75 | COc1ccc(C2c3c(nc4cc(C(F)(F)F)ccn34)CCN2C(=O)COc2ccc3ccccc3c2)cc1OC(F)(F)F (centres unmarked) [Example 3.13.1, 1-(1-(4-methoxy-3-(trifluoromethoxy)phenyl)-7-(trifluoromethyl)-3,4-dihydroimidazo[1,2-a:5,4-c′]dipyridin-2(1H)-yl)-2-(naphthalen-2-yloxy)ethan-1-one] |
| 22 | Cc1nc(C)c(C2c3c(nc4cc(C(F)(F)F)ccn34)CCN2C(=O)COc2ccc(-c3ncco3)nc2Cl)s1 (centres unmarked) [Example 3.59.1, 2-((2-chloro-6-(oxazol-2-yl)pyridin-3-yl)oxy)-1-(1-(2,4-dimethylthiazol-5-yl)-7-(trifluoromethyl)-3,4-dihydroimidazo[1,2-a:5,4-c′]dipyridin-2(1H)-yl)ethan-1-one] |
| 6 | O=C(COc1ccc(N2CCOCC2)cc1Cl)N1CCc2nc3cc(C(F)(F)F)ccn3c2C1c1ccc(C2CC2)cc1F (centres unmarked) [Example 3.5.2, 2-(2-chloro-4-morpholinophenoxy)-1-(1-(4-cyclopropyl-2-fluorophenyl)-7-(trifluoromethyl)-3,4-dihydroimidazo[1,2-a:5,4-c′]dipyridin-2(1H)-yl)ethan-1-one] |
| 17 | COc1ccc(C2c3c(nc4cc(C(F)(F)F)ccn34)CCN2C(=O)COc2ccc(CN3CCOCC3)cc2Cl)cc1OC (centres unmarked) [Example 3.1.26, 2-(2-chloro-4-(morpholinomethyl)phenoxy)-1-(1-(3,4-dimethoxyphe-nyl)-7-(trifluoromethyl)-3,4-dihydroimidazo[1,2-a:5,4-c′]dipyridin-2(1H)-yl)ethan-1-one] |
| 18 | O=C(NC1CC1)c1ccc(OCC(=O)N2CCc3nc4ccccn4c3C2c2ccc(OC(F)(F)F)cc2F)c(Cl)n1 (centres unmarked) [Example 1.19.2, 6-chloro-N-cyclopropyl-5-(2-(1-(2-fluoro-4-(trifluoromethoxy)phenyl)-3,4-dihydroimidazo[1,2-a:5,4-c′]dipyridin-2(1H)-yl)-2-oxoethoxy)picolinamide] |
| 49 | COC(=O)c1ccc(C2c3c(nc4ccccn34)CCN2C(=O)COc2ccc(C(=O)NC3CC3)nc2Cl)c(F)c1 (centres unmarked) [Example 1.15.2, methyl-4-(2-(2-((2-chloro-6-(cyclopropylcarbamoyl)pyridin-3-yl)oxy)acetyl)-1,2,3,4-tetrahydroimidazo[1,2-a:5,4-c′]dipyridin-1-yl)-3-fluorobenzoate] |
| 199 | COc1ccc(C2c3c(nc4cc(C(F)(F)F)ccn34)CCN2C(=O)COc2ccc(OC(F)(F)F)cc2)cc1OC (centres unmarked) [Example 3.1.11] |
| 427 | Cc1csc(C2c3c(nc4cc(C(F)(F)F)ccn34)CCN2C(=O)COc2ccc(CN3CCOCC3)cc2Cl)n1 (centres unmarked) [Example 3.42.2, 2-(2-chloro-4-(morpholinomethyl)phenoxy)-1-(1-(4-methylthiazol-2-yl)-7-(trifluoromethyl)-3,4-dihydroimidazo[1,2-a:5,4-c′]dipyridin-2(1H)-yl)ethan-1-one] |
| 34 | COc1ccc(C2c3c(nc4cc(Cl)ccn34)CCN2C(=O)COc2ccc3ccccc3c2)cc1OC[C@H](O)CO (stereo partly drawn) [Example 2.10.1, 1-(7-chloro-1-(3-((R)-2,3-dihydroxypropoxy)-4-methoxyphenyl)-3,4-dihydroimidazo[1,2-a:5,4-c′]dipyridin-2(1H)-yl)-2-(naphthalen-2-yloxy)ethan-1-one] |
| 45 | COc1ccc(C2c3c(nc4cc(C(F)(F)F)ccn34)CCN2C(=O)COc2ccc3ccccc3c2)cc1O (centres unmarked) [Example 3.9.1, 1-(1-(3-hydroxy-4-methoxyphenyl)-7-(trifluoromethyl)-3,4-dihydroimidazo[1,2-a:5,4-c′]dipyridin-2(1H)-yl)-2-(naphthalen-2-yloxy)ethan-1-one] |
| 15 | COc1ccc(C2c3c(nc4cc(C(F)(F)F)ccn34)CCN2C(=O)COc2ccc3ccccc3c2)cc1OC (centres unmarked) [Example 3.1.1, 1-(1-(3,4-dimethoxyphenyl)-7-(trifluoromethyl)-3,4-dihydroimidazo[1,2-a:5,4-c′]dipyridin-2(1H)-yl)-2-(naphthalen-2-yloxy)ethan-1-one] |
| 10 | CS(=O)(=O)Nc1ccc(OCC(=O)N2CCc3nc4ccccn4c3C2c2ccc(Cl)cc2F)c(Cl)n1 (centres unmarked) [Example 1.4.7, N-(6-chloro-5-(2-(1-(4-chloro-2-fluorophenyl)-3,4-dihydroimidazo[1,2-a:5,4-c′]dipyridin-2(1H)-yl)-2-oxoethoxy)pyridin-2-yl)methanesulfonamide] |
| 38 | COc1ccc(C2c3c(nc4ccc(C)cn34)CCN2C(=O)COc2ccc3ccccc3c2)cc1OC (centres unmarked) [Example 7.1.2, 1-(1-(3,4-dimethoxyphenyl)-8-methyl-3,4-dihydroimidazo[1,2-a:5,4-c′]dipyridin-2(1H)-yl)-2-(naphthalen-2-yloxy)ethan-1-one] |
| 30 | COc1ccc(C2c3c(nc4cc(C(F)(F)F)ccn34)CCN2C(=O)COc2ccc(Cl)cc2Cl)cc1OC (centres unmarked) [Example 3.1.2, 2-(2,4-Dichlorophenoxy)-1-(1-(3,4-dimethoxyphenyl)-7-(trifluoromethyl)-3,4-dihydroimidazo[1,2-a:5,4-c′]dipyridin-2(1H)-yl)ethan-1-one] |
| 22 | COc1ccc(C2c3c(nc4cc(Cl)ccn34)CCN2C(=O)COc2ccc3ccccc3c2)cc1OCCCO (centres unmarked) [Example 2.12.1, 1-(7-chloro-1-(3-(3-hydroxypropoxy)-4-methoxyphenyl)-3,4-dihydroimidazo[1,2-a:5,4-c′]dipyridin-2(1H)-yl)-2-(naphthalen-2-yloxy)ethan-1-one] |
| 24 | COc1ccc(C2c3c(nc4ccccn34)CCN2C(=O)COc2ccc3ccccc3c2)cc1OC (centres unmarked) [Example 1.1.5, 1-(1-(3,4-dimethoxyphenyl)-3,4-dihydroimidazo[1,2-a:5,4-c′]dipyridin-2(1H)-yl)-2-(naphthalen-2-yloxy)ethan-1-one] |
| 19 | COc1ccc(C2c3c(nc4cc(C(F)(F)F)ccn34)CCN2C(=O)COc2cccc(C(F)(F)F)c2Cl)cc1OC (centres unmarked) [Example 3.1.13, 2-(2-chloro-3-(trifluoromethyl)phenoxy)-1-(1-(3,4-dimethoxyphenyl)-7-(trifluoromethyl)-3,4-dihydroimidazo[1,2-a:5,4-c′]dipyridin-2(1H)-yl)ethan-1-one] |
| 85 | CCc1c(OCC(=O)N2CCc3nc4cc(C(F)(F)F)ccn4c3C2c2ccc(C3CC3)cc2F)ccc(C)[n+]1[O-] (centres unmarked) [Example 3.5.3, 1-(1-(4-cyclopropyl-2-fluorophenyl)-7-(trifluoromethyl)-3,4-dihydroimidazo[1,2-a:5,4-c′]dipyridin-2(1H)-yl)-2-((2-ethyl-6-methyl-1-(I1-oxidanyl)-1I4-pyridin-3-yl)oxy)ethan-1-one] |
| 59 | COc1ccc(C2c3c(nc4cc(Cl)ccn34)CCN2C(=O)COc2ccc(CN3CCOCC3)nc2Cl)c(F)c1 (centres unmarked) [Example 2.3.2, 1-(7-chloro-1-(2-fluoro-4-methoxyphenyl)-3,4-dihydroimidazo[1,2-a:5,4-c′]dipyridin-2(1H)-yl)-2-((2-chloro-6-(morpholinomethyl)pyridin-3-yl)oxy)ethan-1-one] |
| 53 | COc1ccc(C2c3c(nc4cc(C(F)(F)F)ccn34)CCN2C(=O)COc2ccc3ccccc3c2)nc1OC (centres unmarked) [Example 3.20.1, 1-(1-(5,6-dimethoxypyridin-2-yl)-7-(trifluoromethyl)-3,4-dihydroimidazo[1,2-a:5,4-c′]dipyridin-2(1H)-yl)-2-(naphthalen-2-yloxy)ethan-1-one] |
| 64 | CCc1cc(Cl)ccc1OCC(=O)N1CCc2nc3cc(C(F)(F)F)ccn3c2C1c1ccc(OC)c(OC)c1 (centres unmarked) [Example 3.1.29, 2-(4-chloro-2-ethylphenoxy)-1-(1-(3,4-dimethoxyphenyl)-7-(trifluoromethyl)-3,4-dihydroimidazo[1,2-a:5,4-c′]dipyridin-2(1H)-yl)ethan-1-one] |
| 87 | CN(CCO)c1ccc(OCC(=O)N2CCc3nc4ccccn4c3C2c2ccc(Cl)cc2F)c(Cl)n1 (centres unmarked) [Example 1.4.10, 1-(1-(4-chloro-2-fluorophenyl)-3,4-dihydroimidazo[1,2-a:5,4-c′]dipyridin-2(1H)-yl)-2-((2-chloro-6-((2-hydroxyethyl)(methyl)amino)pyridin-3-yl)oxy)ethan-1-one] |
